Experimental data from EP1350523B1 (priority 1992, dated 1994).

Test system: vascular smooth muscle cells
Assay: 24 hour 3H-thymidine DNA synthesis inhibition assay compared with 24 hour 3H-leucine protein inhibition assay
Type: cell-based
Conditions: for therapeutic range (area under the curve of 3H-leucine assay greater than that of 3H-thymidine assay): 24 hour exposure, 5% FBS; for protein synthesis inhibition and cytotoxicity at concentrations where significant DNA synthesis inhibition occurs: Example 8, Figs. 10A-10C
Protocol: The ability of various therapeutic agents to inhibit DNA synthesis and protein synthesis in vascular smooth muscle cells was tested. ^3H-leucine and ^3H-thymidine uptake and cytotoxicity assays were conducted in accordance with the following protocols.
3H-leucine uptake: Vascular smooth muscle cells at 40,000 cells/ml were seeded in sterile 24 well plates at 1ml/well. The plates were incubated overnight at 37°C, 5% CO2, 95% air in a humidified atmosphere (saturation). Log dilutions of the therapeutic agent of interest were incubated with the vascular smooth muscle cells for 5 minutes or 24 hours. Samples of the therapeutic agents were diluted in DMEM: F-12 media (Whittaker Bioproducts, Walkersville, Maryland) with 5% fetal bovine serum (GBS. Gibco) and 5% Serum Plus® (JRH Biologicals). Following therapeutic agent incubation, the solution was aspirated, and 1ml/well of 0.5 microcurie/ml ^3H-leucine in leucine free DMEM (Dulbecco's Modified Eagle's Medium) with 5% Serum Plus® was added. The plates were re-incubated overnight at 37°C, 5% CO2 in a humidified atmosphere. The cells were visually graded using an inverted microscope using a scoring scale to determine viability and cell number. The 1 to 3 grade is based upon percent of cell viability and number compared to control wells, with 3=100%, 2=70%-100% and 1=0%-70%. A record of this scoring assisted in determining the immediate cytotoxic effect of the therapeutic agents. The media was then aspirated, and the cells were washed twice with cold 5% TCA. 400 microliters of 0.2M NaOH was added per well, and the plates were incubated for two hours at room temperature on a rotating platform. 200 microliters per well of the cell solution was transferred into plastic scintillation vials (Bio-Rad Laboratories), and 4 milliliters of Bio-Safe® II liquid scintillation fluid was added prior to vortexing. Vials were counted on a Beckman LS2800 Liquid Scintillation Counter interfaced with Beckman "Data Capture" software for conversion to a Lotus 1-2-3® file and analysis using Lotus 1-2-3®.
^3H-thymidine uptake: Vascular smooth muscle cells were incubated in complete media with 5% FBS (Gibco) overnight at 37°C in a humidified, 5% CO2 environment in sterile 24 well plates. The media was aspirated from the wells and serum free media supplemented with growth factors (DMEM: F-12 basal media supplemented with growth factor cocktail catalog number I1884 which contains insulin (5 micrograms/ml), transferrin (5 micrograms/ml) and sodium selenite (5 nanograms/ml) available from Sigma Chemical, St. Louis, Missouri) was added. Cells were incubated in this media for 24 hours. For a 5 minute therapeutic agent exposure, log dilutions of the therapeutic agent were incubated with the cells in complete media. After 5 minutes and media aspiration, 1 ml/well of 1.0 microcurie/ml ^3H-thymidine dispersed in complete media was added. The 24 hour exposure involved incubation of the cells with 1 ml/well of 1.0 microcurie/ml of ^3H-thymidine dispersed in complete media and log dilutions of the therapeutic agent being tested. In both exposure trials, the cells were then incubated overnight at 37°C in a humidified, 5% CO2 environment. The cells were visually scored for viability and cell number. […] Vials were counted on a Beckman LS2800 Liquid Scintillation Counter interfaced with Beckman "Data Capture" software for conversion to a Lotus 1-2-3° file and analysis using Lotus 1-2-30®.

## O=[N+]([O-])OCC(CO[N+](=O)[O-])O[N+](=O)[O-] [nitroglycerin]
  therapeutic range (area under the curve of 3H-leucine assay greater than that of 3H-thymidine assay): showed an available therapeutic range
  protein synthesis inhibition and cytotoxicity at concentrations where significant DNA synthesis inhibition occurs: minimal protein synthesis inhibition and cytotoxicity

## CN[C@@H]1C[C@H]2O[C@@](C)([C@@H]1OC)n1c3ccccc3c3c4c(c5c6ccccc6n2c5c31)C(=O)NC4 [staurosporin]
  therapeutic range (area under the curve of 3H-leucine assay greater than that of 3H-thymidine assay): showed an available therapeutic range

## Cc1ccc(C(=O)Nc2ccc(S(=O)(=O)O)c3cc(S(=O)(=O)O)cc(S(=O)(=O)O)c23)cc1NC(=O)c1cccc(NC(=O)Nc2cccc(C(=O)Nc3cc(C(=O)Nc4ccc(S(=O)(=O)O)c5cc(S(=O)(=O)O)cc(S(=O)(=O)O)c45)ccc3C)c2)c1 [suramin]
  therapeutic range (area under the curve of 3H-leucine assay greater than that of 3H-thymidine assay): showed an available therapeutic range
  protein synthesis inhibition and cytotoxicity at concentrations where significant DNA synthesis inhibition occurs: minimal protein synthesis inhibition and cytotoxicity
